According to patent US20210353595A1, “USE OF MELATONIN IN PREPARATION OF MEDICAMENT FOR INHIBITING AND/OR KILLING BACTERIUM” (priority 2020, published 2021):

Experiments:
[1] = test system: Streptococcus; assay: Growth curve with melatonin and citric acid; format: cell-based, Streptococcus pneumoniae; settings: MT 1-3 mg/mL, FIG. 27
Experimental: In additional studies, 1 mL of Klebsiella pneumoniae, Pseudomonas aeruginosa, Diplococcus pneumoniae and Streptococcus pneumoniae at the logarithmic growth stage was added into 100 mL of fresh and sterile Martin broth medium containing different concentrations of melatonin and citric acid (CA) (MT-1 mg/mL, MT-1 mg/mL-CA-1 mg/mL, MT-1 mg/mL-CA-2 mg/mL, MT-1 mg/mL-CA-3 mg/mL; MT-2 mg/mL, MT-2 mg/mL-CA-1 mg/mL, MT-2 mg/mL-CA-2 mg/mL, MT-2 mg/mL-CA-3 mg/mL; MT-3 mg/mL, MT-3 mg/mL-CA-1 mg/mL, MT-3 mg/mL-CA-2 mg/mL MT-3 mg/mL-CA-3 mg/mL).

[2] = test system: Pasteurella multocida; assay: Prevention of Pasteurella multocida infection by melatonin in mice; format: in vivo, C57BL/6 mice
Experimental: C57 mice purchased from the Third Military Medical University were randomly divided into four groups (10 mice in each group): a group of Pasteurella multocida+solvent control, a group of Pasteurella multocida+MT (30 mg/kg), a group of Pasteurella multocida+MT (60 mg/kg), and a group of Pasteurella multocida+MT (120 mg/kg). Before Pasteurella multocida infection, MT was injected intraperitoneally to the experimental group (injection once in the morning) for consecutive 7 days (P) or 6 days (P-1), while the control mice received the equal amount of DMSO. Thereafter, mice were infected by intraperitoneal injection of suspension of Pasteurella multocida ([…]). The survival rate of mice within 7 days was monitored and recorded. Blood samples were collected from mice, and the serum was stored at −20° C. for later ELISA test. Lung samples were collected and homogenized aseptically, and then the bacterial load was quantified by serial dilution, plate inoculation and CFU counting.
In order to measure the colonization of mouse lung bacteria before and after melatonin treatment, the lung tissues of mice were collected 24 hours and 32 hours after infection. The tissues were homogenized under aseptic conditions, and the bacterial content was determined by continuous dilution of 10 times in saline. These different dilutions were coated on the Martin broth agar in triplicate and incubated in a constant-temperature incubator at 37° C. for 24 hours to count the bacterial CFU.

[3] = preventive dose 60 mg/kg or above, intraperitoneal, consecutive 7 days before infection

COc1ccc2[nH]cc(CCNC(C)=O)c2c1 [melatonin, N-acetyl-5-methoxytryptamine]
antibacterial activity [1]: exhibits antibacterial activity | preventive effect on the bacterial infection ([2]; melatonin removed 24 hours before infection (P-1, 6 days), FIGS. 33 and 34): significant preventive effect | bacterial count in the lung [2, 3]: significantly reduced | survival rate of mice [2, 3]: significantly improved
